Measurements reported in PMC13095444, “Discovery of RGS2-FBXO44 interaction inhibitors using a cell-based NanoBit assay” (Molecular Pharmacology, 2025).

Assays:
[1] = target: T1, RGS2-FBXO44 interaction (Homo sapiens, UniProt P41220); assay: RGS2-FBXO44 NanoBit assay (HEK-293T RGS2-SmBiT/LgBiT-FBXO44 stable clone #6); type: cell-based
T1 construct: expressed in transfected cells
T1 sequence (P41220 1-211): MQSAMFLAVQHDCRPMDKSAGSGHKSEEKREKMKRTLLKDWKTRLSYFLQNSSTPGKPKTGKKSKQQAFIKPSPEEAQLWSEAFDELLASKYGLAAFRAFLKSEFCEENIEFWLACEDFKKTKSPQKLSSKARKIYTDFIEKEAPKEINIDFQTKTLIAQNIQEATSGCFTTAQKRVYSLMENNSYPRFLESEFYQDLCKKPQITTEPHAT
Procedure: Nano-Glo Live Cell Substrate (LCS) was diluted 1:50 in HBSS to form a 2× stock, and then, 15 μL was added to each well. Plates were shaken on an orbital shaker at 500 rpm for 5 minutes protected from light and then spun down at 1000 rpm for 30 seconds. Plates were incubated at room temperature for 20 minutes, and then, luminescence was detected on a Synergy Neo2 multimode plate reader.
HEK-293T-RGS2-FBXO44 NanoBit cells were treated for 16–18 hours with compound at 100 μM. This relatively high concentration was chosen because of the challenging nature of our assay (intracellular PPI inhibition). Parental HEK-293T cells were used as a negative control. […] Based on these criteria, 97 compounds were identified as hits from our primary screen (6.1% initial hit rate). To confirm hits, the same assay was repeated in triplicate, which delivered 34 compounds that reached the threshold for inhibition in at least 2 replicates with <25% cell toxicity (Fig. 2C; Supplemental Table 1), thus rendering a final hit rate of 2.1%.
Fresh powders of 20 compounds were purchased and reassayed for their ability to inhibit the RGS2-FBXO44 NanoBit signal, using the same assay paradigm as in the primary screen (Fig. 3; Table 1). […] Nevertheless, all compounds were confirmed to inhibit the RGS2-FBXO44 NanoBit signal at this high concentration.
We next assessed the concentration-dependent effect of our 20 hits. Compounds were assayed at concentrations ranging from 500 to 0.01 μM. NanoBit luminescence (relative luminescence units) was normalized to viability (RFU) and presented as a percentage of untreated cells.

[2] = target: T2, RGS2 (Homo sapiens, UniProt P41220); assay: Cellular thermal shift assay (CETSA), RGS2-HA; type: binding; settings: 100 μM overnight (16–18 hours); gradient 40–60 °C; vs DMSO
T2 construct: Because both full-length RGS2 and FBXO44 are extremely difficult to express as recombinant proteins, we opted for a cell-based method; expressed in transfected cells; host or cells: HEK-293T, transient transfection
T2 sequence (P41220 1-211): T1 sequence (P41220 1-211)
Procedure: The cells in 100 mm dishes were harvested by trypsination in reduced serum media and transferred to 15 mL conical tubes. The cells were centrifuged at 300 × g for 3 minutes. Media was removed, and the cell pellet was washed with 10 mL of PBS. The cells were then resuspended in 500 μL of PBS and aliquoted into polymerase chain reaction (PCR) tubes. The cells were then heated in a PCR gradient (40–60 °C) for 3 minutes and then transferred to a 25 °C PCR block for 3 minutes. Following this, cells were immediately flash-frozen using liquid nitrogen. The cells were freeze-thawed 3 times to lyse the cells and then spun down at 20,000 × g for 20 minutes. The supernatant was then added to sample buffer and heated for 5 minutes at 95 °C before SDS-PAGE and western blot analysis.
We next assessed whether the action of compound 10 to inhibit the RGS2-FBXO44 interaction is through direct binding to either protein. […] The cells were lysed and analyzed by western blot to determine melting temperatures (Tm). […] We also assessed the effect of compound 10 on the Tm for RGS4, which is closely related to RGS2 and also subject to proteasomal degradation, however, independent of FBXO44 ([Lee et al, 2005]; [Sjögren et al, 2015]).

[3] = target: T1, RGS2-FBXO44 interaction; assay: Coimmunoprecipitation of RGS2-HA and FLAG-FBXO44; type: cell-based; settings: 100 μM; anti-HA IP, FLAG-FBXO44 normalized to input, vs DMSO
Procedure: The cells were harvested in RIPA buffer containing protease inhibitors. The cells were then lysed by incubating on ice with occasional vortexing for 30 minutes. The cell lysates were centrifuged at 9600 × g for 10 minutes, and the supernatants were precleared by incubating with 40 μL prewashed protein A agarose beads (Roche) for 1 hour with slow rotation at 4 °C. The samples were then centrifuged at 10,000 rpm for 1 minute, and the supernatant was used to determine total protein concentration with the Pierce BCA Protein Assay Kit (Thermo Scientific). In total, 500 μg of total protein was used for each reaction. The samples were incubated with 100 μM compound 10 for 30 minutes with rotation at 4 °C. An equal amount of DMSO was used as a vehicle. Additionally, 20 μL was removed from each sample (input); 3 μL of rabbit anti-HA antibody (H6908; Sigma Aldrich) and 40μL of protein A agarose beads (Roche) were added to each sample prior to incubation on rotator at 4 °C overnight. The samples were centrifuged at 9600 × g for 5 minutes at 4 °C, and the supernatant was removed. The samples were washed once with 1 mL RIPA buffer and then 3× with 1 mL PBS. Bound proteins were eluted by heating the samples at 95 °C in 30 μL of SDS sample buffer for 10 minutes. The samples were centrifuged at 10,000 rpm for 5 minutes at 4 °C, and the supernatants were subjected to SDS-PAGE and western blot analysis. […]

SMILES: CCC1CCCCN1S(=O)(=O)c1cc(Br)ccc1OC (stereo not shown) [Compound 10]
- % Inhibition @ 100 μM of RGS2-FBXO44 NanoBit signal ([1]; 100 μM, 16–18 hours, fresh powder, luminescence normalized to viability, vs nontreated cells): 71.7∗∗∗∗ %
- IC50 ([1]; concentrations 500 to 0.01 μM, RLU normalized to viability (RFU), read-out: IC50 (μM), inhibition of RGS2-FBXO44 NanoBit signal): 19.6 µM
- Increase in the Tm for RGS2 [2]: 2.4 °C
- Association between RGS2 and FBXO44 (co-IP) [3]: almost completely blocked
